Experimental data from article PMC12775819, “Optimizing PSMA-617-based inhibitors through charged linker modifications: Insights into structure-activity relationships” (Theranostics, 2026).
Non-standard residues stand in square brackets, D forms with d. Residues, ends and D or L forms follow the SMILES beside them. *: point of attachment. DOTA = O=C(O)CN1CCN(CC(=O)O)CCN(CC(=O)*)CCN(CC(=O)O)CC1; EuK = O=C(O)CC[C@H](NC(=O)N[C@@H](CCCCN*)C(=O)O)C(=O)O; 2Nal = N[C@@H](Cc1ccc2ccccc2c1)C(=O)O; Trx = NC[C@H]1CC[C@H](C(=O)O)CC1

Key:
[1] = test system: PSMA-positive LNCaP cells; assay: Surface binding and internalization of 68Ga-labeled compounds; assay type: cell-based, human; settings: for Internalization Block / Surface Binding Block / Internalization / Surface Binding: 30 nM, 45 min, 37 °C; for Internalization Block / Surface Binding Block: blocked with 2-PMPA 500 µM; for Internalization / Surface Binding: unblocked; for Specific Internalization / Specific Surface Binding: difference of unblocked and blocked values
Experimental: The PSMA-positive human cell line LNCaP (human lymph node carcinoma of the prostate; ATCC CRL-1740) was cultivated adherently at 37 °C and humidified 5% CO2 with RPMI-1640 (Thermo Fisher Scientific, Germany) supplemented with 10% fetal bovine serum (Sigma-Aldrich, Germany), 1% sodium pyruvate (Life Technologies, Germany) and 1% penicillin/[…] (Thermo Fisher Scientific, Germany). A mixture of trypsin/ethylenediaminetetraacetic acid (0.05% / 0.02%; Thermo Fisher Scientific, Germany) was used for cell harvesting (last authentication: April 2024).
Internalization assays were performed on poly-L-lysine coated 24-well cell culture plates. The day before the experiment, LNCaP cells (10^5 cells/well) were harvested and seeded to the wells. The cells were incubated with the ^68Ga-labeled compounds (250 µl, 30 nM, diluted in RPMI medium) for 45 min at 37 °C. […] The medium was then removed and the cells washed with ice-cold PBS buffer (3 × 1 ml). To remove surface bound compounds, ice-cold glycine buffer (2 × 0.5 ml, 50 mM, pH 2.8) was added to the wells and collected after 5 min in a combined fraction. After washing once with PBS (1 ml), NaOH (0.5 ml, 0.3 M) was added to the cells for lysation. Collected surface-bound, internalized fractions and standards from the stock solutions (25 µl) were measured in a γ-counter. Data was normalized and presented as percentage of the initially added radioactivity bound to 10^5 cells [%IA/10^5 cells].

[2] = in vivo; settings: male, BALB/c nu/nu, mouse, iv, 500 pmol, total radioactivity
[3] = Partition coefficient (logD), n-octanol/PBS pH 7.4; assay type: physicochemical; settings: 68Ga-labeled compounds, mean ± SD, read-out: Partition Coefficient [logDoctanol/PBS]
Experimental: To determine the lipophilicity expressed as distribution coefficient (logD), a two-phase system of n-octanol (500 µl) and phosphate buffered saline (PBS) (490 µl) at pH 7.4 was used (n = 4). Compounds were radiolabeled with [^68Ga]Ga^3+ and the mixture diluted to a concentration of 0.25 µM in PBS. 10 µl of the 0.25 µM dilution were added to the n-octanol / PBS mixture. After extensive mixing, the 2-phase system was centrifuged for 10 min at 14,000 rpm and 4 °C. Two samples from each phase (100 µl) were taken and measured in a γ-gamma counter (PerkinElmer, Waltham, USA). […] The data is presented as the mean value with the standard deviation (SD).

[4] = Static small-animal PET imaging 1 h and 2 h p.i.; settings: male, BALB/c nu/nu, mouse, tumor (LNCaP xenograft), iv, 500 pmol, total radioactivity, SUV tumor, 68Ga-labeled, 0.5 nmol i.v., n = 1, SD from VOIs

SUV at 1 h ([2]; SUV kidneys) | SUV at 2 h ([2]; SUV kidneys) | SUV at 1 h ([2]; SUV muscle) | SUV at 2 h ([2]; SUV muscle) | SUV at 1 h ([2]; SUV tumor) | SUV at 2 h ([2]; SUV tumor) | logD [3] | SUV at 1 h ([4]; static PET 1 h p.i.) | SUV at 2 h ([4]; static PET 2 h p.i.) | tissue to tissue ratio at 1 h [2] | tissue to tissue ratio at 2 h [2] | SMILES | Internalization Block [1] | Surface Binding Block [1] | Internalization [1] | Surface Binding [1] | Specific Internalization [1] | Specific Surface Binding [1]
1.71 ± 0.2 SUV | 1.32 ± 0.15 SUV | 0.09 ± 0.01 SUV | 0.08 ± 0.02 SUV | 0.43 ± 0.06 SUV | 0.3 ± 0.11 SUV | -3.5 ± 0.2 | – | – | – | – | O=C(O)CC[C@H](NC(=O)N[C@@H](CCCCNC(=O)[C@H](Cc1c[nH]cn1)NC(=O)[C@H](CCC(=O)O)NC(=O)[C@H](Cc1c[nH]cn1)NC(=O)[C@H](CCC(=O)O)NC(=O)[C@H](Cc1c[nH]cn1)NC(=O)[C@H](CCC(=O)O)NC(=O)[C@H](Cc1ccc2ccccc2c1)NC(=O)[C@H]1CC[C@H](CNC(=O)CN2CCN(CC(=O)O)CCN(CC(=O)O)CCN(CC(=O)O)CC2)CC1)C(=O)O)C(=O)O [PS1, EuK-(HE)3-NaI-ChX-DOTA] ({DOTA-Trx}-[2Nal]EHEHEH-EuK) | 0.314 ± 0.024 %Binding / %Internalization | 0.069 ± 0.012 %Binding / %Internalization | 0.66 ± 0.14 %Binding / %Internalization | 1.15 ± 0.17 %Binding / %Internalization | 0.35 ± 0.3 %Binding / %Internalization | 1.09 ± 0.34 %Binding / %Internalization
1.64 ± 0.1 SUV | 1.01 ± 0.09 SUV | 0.11 ± 0.02 SUV | 0.11 ± 0.01 SUV | 0.78 ± 0.05 SUV | 0.74 ± 0.06 SUV | -3.4 ± 0.3 | – | – | – | – | O=C(O)CC[C@H](NC(=O)N[C@@H](CCCCNC(=O)[C@H](Cc1ccc2ccccc2c1)NC(=O)[C@H](Cc1c[nH]cn1)NC(=O)[C@H](CCC(=O)O)NC(=O)[C@H](Cc1c[nH]cn1)NC(=O)[C@H](CCC(=O)O)NC(=O)[C@H](Cc1c[nH]cn1)NC(=O)[C@H](CCC(=O)O)NC(=O)[C@H]1CC[C@H](CNC(=O)CN2CCN(CC(=O)O)CCN(CC(=O)O)CCN(CC(=O)O)CC2)CC1)C(=O)O)C(=O)O [PS2, EuK-NaI-(HE)3-ChX-DOTA] ({DOTA-Trx}-EHEHEH[2Nal]-EuK) | 0.21 ± 0.036 %Binding / %Internalization | 0.183 ± 0.024 %Binding / %Internalization | 0.55 ± 0.04 %Binding / %Internalization | 1.01 ± 0.14 %Binding / %Internalization | 0.34 ± 0.24 %Binding / %Internalization | 0.83 ± 0.27 %Binding / %Internalization
3.81 ± 0.15 SUV | 2.77 ± 0.2 SUV | 0.11 ± 0.02 SUV | 0.1 ± 0.03 SUV | 1.15 ± 0.04 SUV | 1.07 ± 0.09 SUV | -3.9 ± 0.3 | – | – | – | – | O=C(O)CC[C@H](NC(=O)N[C@@H](CCCCNC(=O)[C@H](Cc1ccc2ccccc2c1)NC(=O)[C@H]1CC[C@H](CNC(=O)[C@H](CCC(=O)O)NC(=O)[C@H](Cc2c[nH]cn2)NC(=O)[C@H](CCC(=O)O)NC(=O)[C@H](Cc2c[nH]cn2)NC(=O)[C@H](CCC(=O)O)NC(=O)[C@H](Cc2c[nH]cn2)NC(=O)CN2CCN(CC(=O)O)CCN(CC(=O)O)CCN(CC(=O)O)CC2)CC1)C(=O)O)C(=O)O [PS4, EuK-NaI-ChX-(EH)3-DOTA] ({DOTA}-HEHEHE[Trx][2Nal]-EuK) | 0.149 ± 0.047 %Binding / %Internalization | 0.080 ± 0.009 %Binding / %Internalization | 0.81 ± 0.29 %Binding / %Internalization | 1.43 ± 0.12 %Binding / %Internalization | 0.66 ± 0.68 %Binding / %Internalization | 1.35 ± 0.21 %Binding / %Internalization
1.53 ± 0.08 SUV | 0.4 ± 0.05 SUV | 0.11 ± 0.02 SUV | 0.11 ± 0.02 SUV | 0.69 ± 0.07 SUV | 0.85 ± 0.08 SUV | -3.1 ± 0.3 | – | – | – | – | O=C(O)CC[C@H](NC(=O)N[C@@H](CCCCNC(=O)[C@H](CCC(=O)O)NC(=O)[C@H](CCC(=O)O)NC(=O)[C@H](CCC(=O)O)NC(=O)[C@H](Cc1ccc2ccccc2c1)NC(=O)[C@H]1CC[C@H](CNC(=O)CN2CCN(CC(=O)O)CCN(CC(=O)O)CCN(CC(=O)O)CC2)CC1)C(=O)O)C(=O)O [PS6, EuK-E3-NaI-ChX-DOTA] ({DOTA-Trx}-[2Nal]EEE-EuK) | – | – | – | – | – | –
1.6 ± 0.12 SUV | 0.59 ± 0.06 SUV | 0.09 ± 0.01 SUV | 0.12 ± 0.02 SUV | 0.71 ± 0.05 SUV | 0.56 ± 0.08 SUV | -3.3 ± 0.1 | – | – | – | – | O=C(O)CC[C@H](NC(=O)N[C@@H](CCCCNC(=O)[C@H](Cc1ccc2ccccc2c1)NC(=O)[C@H](CCC(=O)O)NC(=O)[C@H](CCC(=O)O)NC(=O)[C@H](CCC(=O)O)NC(=O)[C@H]1CC[C@H](CNC(=O)CN2CCN(CC(=O)O)CCN(CC(=O)O)CCN(CC(=O)O)CC2)CC1)C(=O)O)C(=O)O [PS7, EuK-NaI-E3-ChX-DOTA] ({DOTA-Trx}-EEE[2Nal]-EuK) | – | – | – | – | – | –
3.89 ± 0.65 SUV | 2.7 ± 0.89 SUV | 0.08 ± 0.02 SUV | 0.11 ± 0.02 SUV | 1.32 ± 0.08 SUV | 0.86 ± 0.39 SUV | -3 ± 0.1 | – | – | – | – | O=C(O)CC[C@H](NC(=O)N[C@@H](CCCCNC(=O)[C@H](Cc1ccc2ccccc2c1)NC(=O)[C@H]1CC[C@H](CNC(=O)[C@H](CCC(=O)O)NC(=O)[C@H](CCC(=O)O)NC(=O)[C@H](CCC(=O)O)NC(=O)CN2CCN(CC(=O)O)CCN(CC(=O)O)CCN(CC(=O)O)CC2)CC1)C(=O)O)C(=O)O [PS8, EuK-NaI-ChX-E3-DOTA] ({DOTA}-EEE[Trx][2Nal]-EuK) | – | – | – | – | – | –
0.98 ± 0.09 SUV | 0.74 ± 0.09 SUV | 0.082 ± 0.002 SUV | 0.07 ± 0.03 SUV | 0.21 ± 0.05 SUV | 0.12 ± 0.03 SUV | -3.2 ± 0.1 | – | – | – | – | O=C(O)CC[C@H](NC(=O)N[C@@H](CCCCNC(=O)[C@H](Cc1c[nH]cn1)NC(=O)[C@H](Cc1c[nH]cn1)NC(=O)[C@H](Cc1c[nH]cn1)NC(=O)[C@H](Cc1ccc2ccccc2c1)NC(=O)[C@H]1CC[C@H](CNC(=O)CN2CCN(CC(=O)O)CCN(CC(=O)O)CCN(CC(=O)O)CC2)CC1)C(=O)O)C(=O)O [PS9, EuK-H3-NaI-ChX-DOTA] ({DOTA-Trx}-[2Nal]HHH-EuK) | – | – | – | – | – | –
8.13 ± 1.31 SUV | 1.09 ± 0.06 SUV | 0.21 ± 0.03 SUV | 0.06 ± 0.02 SUV | 0.65 ± 0.04 SUV | 0.37 ± 0.05 SUV | -3.7 ± 0.6 | – | – | – | – | O=C(O)CC[C@H](NC(=O)N[C@@H](CCCCNC(=O)[C@H](Cc1ccc2ccccc2c1)NC(=O)[C@H](Cc1c[nH]cn1)NC(=O)[C@H](Cc1c[nH]cn1)NC(=O)[C@H](Cc1c[nH]cn1)NC(=O)[C@H]1CC[C@H](CNC(=O)CN2CCN(CC(=O)O)CCN(CC(=O)O)CCN(CC(=O)O)CC2)CC1)C(=O)O)C(=O)O [PS10, EuK-NaI-H3-ChX-DOTA] ({DOTA-Trx}-HHH[2Nal]-EuK) | – | – | – | – | – | –
1.24 ± 0.08 SUV | 0.77 ± 0.13 SUV | 0.11 ± 0.02 SUV | 0.1 ± 0.03 SUV | 0.82 ± 0.07 SUV | 0.88 ± 0.09 SUV | -3.6 ± 0.1 | – | – | – | – | O=C(O)CC[C@H](NC(=O)N[C@@H](CCCCNC(=O)[C@H](Cc1ccc2ccccc2c1)NC(=O)[C@H]1CC[C@H](CNC(=O)[C@H](Cc2c[nH]cn2)NC(=O)[C@H](Cc2c[nH]cn2)NC(=O)[C@H](Cc2c[nH]cn2)NC(=O)CN2CCN(CC(=O)O)CCN(CC(=O)O)CCN(CC(=O)O)CC2)CC1)C(=O)O)C(=O)O [PS11, EuK-NaI-ChX-H3-DOTA] ({DOTA}-HHH[Trx][2Nal]-EuK) | – | – | – | – | – | –
– | – | – | – | – | – | – | 0.43 ± 0.06 SUV | 0.3 ± 0.11 SUV | – | – | O=C(O)CC[C@H](NC(=O)N[C@@H](CCCCNC(=O)[C@H](Cc1c[nH]cn1)NC(=O)[C@H](CCC(=O)O)NC(=O)[C@H](Cc1c[nH]cn1)NC(=O)[C@H](CCC(=O)O)NC(=O)[C@H](Cc1c[nH]cn1)NC(=O)[C@H](CCC(=O)O)NC(=O)[C@H](Cc1ccc2ccccc2c1)NC(=O)[C@H]1CC[C@H](CNC(=O)CN2CCN(CC(=O)O)CCN(CC(=O)O)CCN(CC(=O)O)CC2)CC1)C(=O)O)C(=O)O [[^68Ga]Ga-PS1, metal not drawn] ({DOTA-Trx}-[2Nal]EHEHEH-EuK) | – | – | – | – | – | –
– | – | – | – | – | – | – | – | – | 0.44 ± 0.15 | 2.15 ± 0.22 | O=C(O)CC[C@H](NC(=O)N[C@@H](CCCCNC(=O)[C@H](CCC(=O)O)NC(=O)[C@H](CCC(=O)O)NC(=O)[C@H](CCC(=O)O)NC(=O)[C@H](Cc1ccc2ccccc2c1)NC(=O)[C@H]1CC[C@H](CNC(=O)CN2CCN(CC(=O)O)CCN(CC(=O)O)CCN(CC(=O)O)CC2)CC1)C(=O)O)C(=O)O [[^68Ga]Ga-PS6, metal not drawn] ({DOTA-Trx}-[2Nal]EEE-EuK) | – | – | – | – | – | –
